These results are taken from ChEMBL document CHEMBL5291721, “A preclinical secondary pharmacology resource illuminates target-adverse drug reaction associations of marketed drugs” (Nat Commun, 2023).

By AC50 is commonly meant the concentration giving half of the maximal activity seen. The low end stands for activity at low concentration, the high end for activity only at high concentration.

Assay [1] has as its target T1, Peroxisome proliferator-activated receptor gamma (Homo sapiens, UniProt P37231).
T1 sequence (P37231 whole entry): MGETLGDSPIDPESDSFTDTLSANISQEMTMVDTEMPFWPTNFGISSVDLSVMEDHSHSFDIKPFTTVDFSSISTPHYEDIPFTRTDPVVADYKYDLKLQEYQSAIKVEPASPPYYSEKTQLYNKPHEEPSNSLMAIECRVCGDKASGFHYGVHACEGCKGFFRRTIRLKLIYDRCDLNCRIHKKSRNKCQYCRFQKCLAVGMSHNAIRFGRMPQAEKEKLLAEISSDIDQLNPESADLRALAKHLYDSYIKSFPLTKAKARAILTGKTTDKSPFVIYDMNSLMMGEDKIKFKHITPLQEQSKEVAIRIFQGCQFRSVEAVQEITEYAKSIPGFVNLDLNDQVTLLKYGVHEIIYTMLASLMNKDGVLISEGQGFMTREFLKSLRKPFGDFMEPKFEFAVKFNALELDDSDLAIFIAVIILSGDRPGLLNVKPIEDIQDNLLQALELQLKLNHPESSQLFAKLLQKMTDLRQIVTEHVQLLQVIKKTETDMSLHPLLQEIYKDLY
The format is functional.

For assay [2], the target named is Receptor tyrosine-protein kinase erbB-2 (Homo sapiens, UniProt P04626). The format is functional.
Receptor tyrosine-protein kinase erbB-2, sequence (P04626 whole entry): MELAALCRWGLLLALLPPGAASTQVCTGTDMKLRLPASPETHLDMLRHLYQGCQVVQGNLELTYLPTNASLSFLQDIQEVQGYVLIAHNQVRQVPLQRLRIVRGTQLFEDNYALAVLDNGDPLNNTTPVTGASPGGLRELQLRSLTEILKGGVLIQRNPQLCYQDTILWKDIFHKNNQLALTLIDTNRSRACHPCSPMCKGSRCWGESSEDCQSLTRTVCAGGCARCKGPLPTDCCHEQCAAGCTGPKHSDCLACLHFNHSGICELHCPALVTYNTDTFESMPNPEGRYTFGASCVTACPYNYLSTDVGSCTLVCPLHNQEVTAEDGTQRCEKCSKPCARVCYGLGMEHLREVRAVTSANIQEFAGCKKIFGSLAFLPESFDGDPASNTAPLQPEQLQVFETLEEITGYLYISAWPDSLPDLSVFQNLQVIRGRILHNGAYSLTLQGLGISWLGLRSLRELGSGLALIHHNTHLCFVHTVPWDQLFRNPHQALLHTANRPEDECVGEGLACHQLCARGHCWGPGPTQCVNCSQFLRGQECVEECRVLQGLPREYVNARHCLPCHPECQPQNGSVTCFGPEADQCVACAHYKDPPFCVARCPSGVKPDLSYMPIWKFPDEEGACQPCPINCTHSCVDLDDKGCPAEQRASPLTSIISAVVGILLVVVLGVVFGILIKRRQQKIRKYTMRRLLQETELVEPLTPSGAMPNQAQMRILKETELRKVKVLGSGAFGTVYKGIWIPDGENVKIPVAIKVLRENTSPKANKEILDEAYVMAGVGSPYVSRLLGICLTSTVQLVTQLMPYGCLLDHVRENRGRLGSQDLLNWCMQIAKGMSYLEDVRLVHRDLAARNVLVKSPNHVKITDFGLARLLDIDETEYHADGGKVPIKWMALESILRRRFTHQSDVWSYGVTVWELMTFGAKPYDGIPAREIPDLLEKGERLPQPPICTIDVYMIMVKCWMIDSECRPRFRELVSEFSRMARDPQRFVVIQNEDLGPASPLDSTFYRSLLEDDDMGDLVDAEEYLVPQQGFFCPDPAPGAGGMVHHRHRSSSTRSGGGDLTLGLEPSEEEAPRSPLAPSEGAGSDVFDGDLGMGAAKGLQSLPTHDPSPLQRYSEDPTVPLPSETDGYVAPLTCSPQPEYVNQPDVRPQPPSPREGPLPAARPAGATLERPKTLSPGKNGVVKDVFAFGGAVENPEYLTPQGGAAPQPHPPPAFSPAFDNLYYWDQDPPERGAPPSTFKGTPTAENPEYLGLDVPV
The target of a further assay is Estrogen receptor beta (Homo sapiens, UniProt Q92731).
Estrogen receptor beta, sequence (Q92731 whole entry): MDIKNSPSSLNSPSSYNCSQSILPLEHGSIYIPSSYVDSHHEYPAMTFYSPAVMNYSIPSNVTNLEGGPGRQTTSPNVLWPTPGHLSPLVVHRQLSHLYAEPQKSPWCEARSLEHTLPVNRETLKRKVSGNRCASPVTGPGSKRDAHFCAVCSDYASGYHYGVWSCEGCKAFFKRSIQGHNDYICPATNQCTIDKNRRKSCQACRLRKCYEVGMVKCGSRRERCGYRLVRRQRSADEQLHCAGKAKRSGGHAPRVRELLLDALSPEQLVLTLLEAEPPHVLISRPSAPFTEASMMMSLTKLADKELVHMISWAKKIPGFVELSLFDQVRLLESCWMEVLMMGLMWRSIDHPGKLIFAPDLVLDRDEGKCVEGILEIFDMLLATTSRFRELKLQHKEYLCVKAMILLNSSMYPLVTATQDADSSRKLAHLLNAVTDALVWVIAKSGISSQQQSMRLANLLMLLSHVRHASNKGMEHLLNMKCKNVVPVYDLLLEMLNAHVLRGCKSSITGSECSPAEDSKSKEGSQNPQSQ
The target of assay [3] is 5-hydroxytryptamine receptor 7 (Homo sapiens, UniProt P34969).
5-hydroxytryptamine receptor 7, sequence (P34969 whole entry): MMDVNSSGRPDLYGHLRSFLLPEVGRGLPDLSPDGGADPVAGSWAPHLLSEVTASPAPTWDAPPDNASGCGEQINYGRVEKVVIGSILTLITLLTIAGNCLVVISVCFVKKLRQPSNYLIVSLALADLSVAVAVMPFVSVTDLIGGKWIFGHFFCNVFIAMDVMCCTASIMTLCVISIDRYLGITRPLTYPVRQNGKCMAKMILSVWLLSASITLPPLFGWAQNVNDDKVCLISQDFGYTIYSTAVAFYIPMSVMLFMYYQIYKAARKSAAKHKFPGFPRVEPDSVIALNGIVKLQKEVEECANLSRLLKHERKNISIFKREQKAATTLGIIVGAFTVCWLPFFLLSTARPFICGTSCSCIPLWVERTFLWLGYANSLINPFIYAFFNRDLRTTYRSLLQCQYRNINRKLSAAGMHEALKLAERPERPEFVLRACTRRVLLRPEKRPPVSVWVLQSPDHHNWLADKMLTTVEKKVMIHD
In another assay the target is Cannabinoid receptor 1 (Homo sapiens, UniProt P21554). The format is functional.
Cannabinoid receptor 1, sequence (P21554 whole entry): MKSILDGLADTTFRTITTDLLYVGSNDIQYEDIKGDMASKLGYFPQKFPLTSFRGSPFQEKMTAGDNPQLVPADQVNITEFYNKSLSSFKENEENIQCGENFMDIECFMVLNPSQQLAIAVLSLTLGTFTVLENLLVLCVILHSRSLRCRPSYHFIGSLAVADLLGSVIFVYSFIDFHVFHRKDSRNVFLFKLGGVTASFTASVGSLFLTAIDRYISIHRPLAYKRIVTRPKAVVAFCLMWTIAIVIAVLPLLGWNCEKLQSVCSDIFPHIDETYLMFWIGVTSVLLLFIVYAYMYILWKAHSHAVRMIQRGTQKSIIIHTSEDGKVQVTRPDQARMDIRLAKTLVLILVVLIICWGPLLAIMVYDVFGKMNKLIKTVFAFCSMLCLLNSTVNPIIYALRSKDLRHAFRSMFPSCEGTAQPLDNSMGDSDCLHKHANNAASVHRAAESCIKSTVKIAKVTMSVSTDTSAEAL
Assay [4] has as its target Prostaglandin G/H synthase 1 (Homo sapiens, UniProt P23219). The assay is classed as functional.
Assay [5] deals with Sodium-dependent serotonin transporter (Homo sapiens, UniProt P31645).
Sodium-dependent serotonin transporter, sequence (P31645 whole entry): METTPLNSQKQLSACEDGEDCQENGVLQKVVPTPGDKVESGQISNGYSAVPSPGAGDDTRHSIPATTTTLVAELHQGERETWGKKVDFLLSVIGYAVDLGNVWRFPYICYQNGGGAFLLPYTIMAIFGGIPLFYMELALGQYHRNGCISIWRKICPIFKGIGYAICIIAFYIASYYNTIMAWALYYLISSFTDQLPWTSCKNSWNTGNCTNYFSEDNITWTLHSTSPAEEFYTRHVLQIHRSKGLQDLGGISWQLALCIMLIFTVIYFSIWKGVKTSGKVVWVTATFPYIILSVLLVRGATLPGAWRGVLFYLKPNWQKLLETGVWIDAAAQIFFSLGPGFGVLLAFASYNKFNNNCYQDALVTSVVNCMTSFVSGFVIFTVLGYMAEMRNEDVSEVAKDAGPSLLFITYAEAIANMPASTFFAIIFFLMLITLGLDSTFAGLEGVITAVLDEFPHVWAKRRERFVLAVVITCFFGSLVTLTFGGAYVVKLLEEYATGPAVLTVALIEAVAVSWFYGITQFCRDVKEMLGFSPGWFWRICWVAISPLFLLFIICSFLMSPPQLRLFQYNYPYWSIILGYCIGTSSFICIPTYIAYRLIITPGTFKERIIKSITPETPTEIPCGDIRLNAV
The target of another assay is T2, Adenosine receptor A3 (Homo sapiens, UniProt P0DMS8).
T2 sequence (P0DMS8 whole entry): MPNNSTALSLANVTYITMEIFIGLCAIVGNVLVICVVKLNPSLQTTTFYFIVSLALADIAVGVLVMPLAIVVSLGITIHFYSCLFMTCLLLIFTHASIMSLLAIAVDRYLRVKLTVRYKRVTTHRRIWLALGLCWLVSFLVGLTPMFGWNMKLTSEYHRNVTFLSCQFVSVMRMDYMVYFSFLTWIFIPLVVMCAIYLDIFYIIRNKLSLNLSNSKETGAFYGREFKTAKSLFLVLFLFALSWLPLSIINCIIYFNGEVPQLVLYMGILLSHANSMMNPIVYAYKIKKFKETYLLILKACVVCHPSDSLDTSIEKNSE

Assay [6] has as its target Vascular endothelial growth factor receptor 2 (Homo sapiens, UniProt P35968). The format is functional.
Assay [7] deals with T3, 5-hydroxytryptamine receptor 1A (Homo sapiens, UniProt P08908).
T3 sequence (P08908 whole entry): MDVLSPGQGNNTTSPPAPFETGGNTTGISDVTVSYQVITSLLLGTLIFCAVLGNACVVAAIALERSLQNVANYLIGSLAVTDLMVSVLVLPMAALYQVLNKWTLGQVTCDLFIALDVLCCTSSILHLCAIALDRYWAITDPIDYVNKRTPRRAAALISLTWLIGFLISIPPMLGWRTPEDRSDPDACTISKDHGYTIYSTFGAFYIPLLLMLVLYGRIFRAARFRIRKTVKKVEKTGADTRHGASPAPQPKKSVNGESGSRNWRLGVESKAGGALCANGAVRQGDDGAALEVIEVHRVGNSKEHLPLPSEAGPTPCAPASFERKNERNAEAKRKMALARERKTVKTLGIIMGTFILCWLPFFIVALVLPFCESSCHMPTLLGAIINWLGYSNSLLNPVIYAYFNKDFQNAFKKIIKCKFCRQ

The target of another assay is D(3) dopamine receptor (Homo sapiens, UniProt P35462).
The target of assay [8] is T4, Muscarinic acetylcholine receptor M1 (Homo sapiens, UniProt P11229).
T4 sequence (P11229 whole entry): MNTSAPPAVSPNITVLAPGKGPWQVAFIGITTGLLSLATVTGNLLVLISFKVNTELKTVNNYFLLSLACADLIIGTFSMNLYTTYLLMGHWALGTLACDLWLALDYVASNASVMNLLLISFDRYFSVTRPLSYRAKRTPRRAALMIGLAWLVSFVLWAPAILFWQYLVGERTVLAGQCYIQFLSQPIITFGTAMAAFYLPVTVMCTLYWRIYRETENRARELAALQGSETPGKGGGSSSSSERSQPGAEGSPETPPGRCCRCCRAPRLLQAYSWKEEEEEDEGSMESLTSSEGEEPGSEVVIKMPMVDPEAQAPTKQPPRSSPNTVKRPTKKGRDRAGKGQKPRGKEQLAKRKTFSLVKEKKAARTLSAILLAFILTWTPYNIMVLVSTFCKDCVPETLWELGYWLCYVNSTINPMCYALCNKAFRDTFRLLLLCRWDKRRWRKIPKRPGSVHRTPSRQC
The format is functional, cell-based.

Assay [9] addresses Hydroxycarboxylic acid receptor 2 (Homo sapiens, UniProt Q8TDS4).
For assay [10], the target named is 5-hydroxytryptamine receptor 2A (Homo sapiens, UniProt P28223).
5-hydroxytryptamine receptor 2A, sequence (P28223 whole entry): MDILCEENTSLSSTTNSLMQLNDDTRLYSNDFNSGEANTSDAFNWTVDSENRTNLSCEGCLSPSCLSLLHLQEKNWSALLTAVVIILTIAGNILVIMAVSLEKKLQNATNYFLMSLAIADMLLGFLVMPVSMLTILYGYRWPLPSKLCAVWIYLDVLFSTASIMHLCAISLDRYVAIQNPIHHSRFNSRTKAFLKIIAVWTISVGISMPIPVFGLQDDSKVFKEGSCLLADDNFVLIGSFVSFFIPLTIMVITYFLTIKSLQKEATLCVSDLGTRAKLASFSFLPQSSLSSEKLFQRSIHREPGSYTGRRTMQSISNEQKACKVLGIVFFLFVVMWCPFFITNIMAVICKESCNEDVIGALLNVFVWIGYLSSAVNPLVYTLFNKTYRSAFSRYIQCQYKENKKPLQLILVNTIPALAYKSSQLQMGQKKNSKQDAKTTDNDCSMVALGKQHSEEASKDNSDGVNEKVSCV
A further assay deals with T5, Thromboxane A2 receptor (Homo sapiens, UniProt P21731).
T5 sequence (P21731 whole entry): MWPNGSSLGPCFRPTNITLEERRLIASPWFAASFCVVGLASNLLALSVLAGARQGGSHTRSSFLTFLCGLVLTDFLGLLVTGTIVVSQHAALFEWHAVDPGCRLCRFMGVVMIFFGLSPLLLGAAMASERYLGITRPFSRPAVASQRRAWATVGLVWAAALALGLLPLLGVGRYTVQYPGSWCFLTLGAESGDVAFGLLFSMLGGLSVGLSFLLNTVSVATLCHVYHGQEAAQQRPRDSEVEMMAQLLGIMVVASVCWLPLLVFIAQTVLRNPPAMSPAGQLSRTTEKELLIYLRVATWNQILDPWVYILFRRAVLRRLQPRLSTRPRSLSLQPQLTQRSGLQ
The assay is classed as functional.
Note: assay procedure not described here.

Prostaglandin G/H synthase 1, sequence (P23219 whole entry): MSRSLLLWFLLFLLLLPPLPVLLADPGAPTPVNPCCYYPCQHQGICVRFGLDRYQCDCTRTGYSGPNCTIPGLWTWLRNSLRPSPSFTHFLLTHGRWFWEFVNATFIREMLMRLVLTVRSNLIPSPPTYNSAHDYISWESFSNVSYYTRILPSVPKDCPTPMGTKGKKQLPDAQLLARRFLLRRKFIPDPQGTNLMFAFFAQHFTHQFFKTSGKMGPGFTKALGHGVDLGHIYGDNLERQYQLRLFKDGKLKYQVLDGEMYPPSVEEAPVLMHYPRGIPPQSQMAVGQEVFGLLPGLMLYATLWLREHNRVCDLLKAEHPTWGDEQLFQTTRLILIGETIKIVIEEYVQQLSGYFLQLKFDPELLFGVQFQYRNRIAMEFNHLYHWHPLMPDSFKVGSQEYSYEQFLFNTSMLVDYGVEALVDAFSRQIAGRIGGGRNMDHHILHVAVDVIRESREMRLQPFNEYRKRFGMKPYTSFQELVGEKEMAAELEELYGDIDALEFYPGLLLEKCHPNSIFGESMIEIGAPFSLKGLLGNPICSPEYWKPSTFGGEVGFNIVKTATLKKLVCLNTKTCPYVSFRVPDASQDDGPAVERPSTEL
Hydroxycarboxylic acid receptor 2, sequence (Q8TDS4 whole entry): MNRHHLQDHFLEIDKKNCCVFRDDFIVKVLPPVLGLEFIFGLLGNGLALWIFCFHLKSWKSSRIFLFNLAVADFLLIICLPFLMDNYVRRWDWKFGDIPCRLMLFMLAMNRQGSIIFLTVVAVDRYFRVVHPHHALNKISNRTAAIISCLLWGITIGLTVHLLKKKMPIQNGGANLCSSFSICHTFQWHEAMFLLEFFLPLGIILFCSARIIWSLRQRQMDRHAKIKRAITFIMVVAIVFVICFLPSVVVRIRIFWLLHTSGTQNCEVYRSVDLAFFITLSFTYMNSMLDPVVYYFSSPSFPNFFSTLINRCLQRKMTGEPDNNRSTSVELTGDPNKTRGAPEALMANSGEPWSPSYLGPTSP

With `Brc1c(NC2=NCCN2)ccc2nccnc12` [BRIMONIDINE], the AC50 in [1] was more than 30 µM.

In turn, `CC(CC1c2ccccc2CCc2ccccc21)CN(C)C` (stereo not given) [BUTRIPTYLINE] yielded a half-maximal activity concentration (AC50) in assay [2] of more than 30 µM.

On to `Cc1c(OCC(F)(F)F)ccnc1C[S+]([O-])c1nc2ccccc2[nH]1` (stereo not given) [LANSOPRAZOLE], for which the AC50 on Estrogen receptor beta was more than 30 µM; in [3] it was more than 10 µM; at Cannabinoid receptor 1, more than 10 µM.

With `CO[C@]12C[C@@H](COC(=O)c3cncc(Br)c3)CN(C)[C@@H]1Cc1cn(C)c3cccc2c13` [NICERGOLINE], the AC50 was more than 30 µM in assay [4]; 7.26 µM in assay [5]; 22.4 µM on Adenosine receptor A3; more than 30 µM in assay [6]; 0.003 µM in assay [7]; 0.641 µM on D(3) dopamine receptor. In addition, the concentration at half-maximal activity (AC50) in assay [8] is more than 30 µM.

`COc1cccc(C2(O)CCCCC2CN(C)C)c1` (stereo not given) [TRAMADOL]: the AC50 in assay [9] is more than 10 µM.

In the case of `Cc1nnc2n1-c1ccc(Cl)cc1C(c1ccccc1Cl)=NC2` [TRIAZOLAM], the activity in [10] was half-maximal at 3.2 µM (AC50).

For the compound THIMEROSAL, the AC50 on Thromboxane A2 receptor is more than 30 µM.
